How the values were obtained:
[1] = system: NK-92 (IL-2 2.5 ng/mL); assay: drug sensitivity score (DSS) (DSS units); higher = more sensitive; extreme values may be limits of the assay; details: 72 h
[2] = system: normal primary NK cells, pool 1 (3 donors) (IL-2 2.5 ng/mL); assay: as above; details: 72 h
[3] = system: normal primary NK cells, pool 3 (3 donors) (IL-2 2.5 ng/mL); assay: as above; details: 72 h
[4] = system: IMC-1 (IL-2 20 ng/mL); assay: as above; details: 72 h
[5] = system: normal primary NK cells, pool 2 (3 donors) (IL-2 2.5 ng/mL); assay: as above; details: 72 h
[6] = system: NKL (IL-2 2.5 ng/mL); assay: as above; details: 72 h
[7] = system: KAI3 (IL-2 2.5 ng/mL); assay: as above; details: 72 h
[8] = system: normal primary NK cells, pool 1 (3 donors), resting (IL-2 0 ng/mL); assay: as above; details: 72 h
[9] = system: SNK-6 (IL-2 2.5 ng/mL); assay: as above; details: 72 h
[10] = system: DERL-7 (IL-2 2.5 ng/mL); assay: as above; details: 72 h
[11] = system: YT (IL-2 2.5 ng/mL); assay: as above; details: 72 h
[12] = system: NK-YS (IL-2 2.5 ng/mL); assay: as above; details: 72 h
[13] = system: KHYG-1 (IL-2 2.5 ng/mL); assay: as above; details: 72 h
[14] = system: NK-92 (IL-2 2.5 ng/mL); assay: percent inhibition of viability; higher = more inhibition; details: 72 h
[15] = system: normal primary NK cells, pool 1 (3 donors) (IL-2 2.5 ng/mL); assay: as above; details: 72 h
[16] = system: normal primary NK cells, pool 3 (3 donors) (IL-2 2.5 ng/mL); assay: as above; details: 72 h
[17] = system: IMC-1 (IL-2 20 ng/mL); assay: as above; details: 72 h
[18] = system: normal primary NK cells, pool 2 (3 donors) (IL-2 2.5 ng/mL); assay: as above; details: 72 h
[19] = system: NKL (IL-2 2.5 ng/mL); assay: as above; details: 72 h
[20] = system: KAI3 (IL-2 2.5 ng/mL); assay: as above; details: 72 h
[21] = system: normal primary NK cells, pool 1 (3 donors), resting (IL-2 0 ng/mL); assay: as above; details: 72 h
[22] = system: SNK-6 (IL-2 2.5 ng/mL); assay: as above; details: 72 h
[23] = system: DERL-7 (IL-2 2.5 ng/mL); assay: as above; details: 72 h
[24] = system: YT (IL-2 2.5 ng/mL); assay: as above; details: 72 h
[25] = system: NK-YS (IL-2 2.5 ng/mL); assay: as above; details: 72 h
[26] = system: KHYG-1 (IL-2 2.5 ng/mL); assay: as above; details: 72 h
[27] = system: normal NK cells expanded with K562-aAPC; assay: as above; details: 72 h, IL-2 2.5 ng/mL
Protocol: (§1)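 Drug sensitivity and resistance testing on K562-aAPC-expanded normal NK cells: 5 concentrations (10-fold steps over a 10,000-fold range), 72 h at 37 °C, viability by CellTiter-Glo normalised to DMSO and benzethonium chloride controls; DSS from the fitted curve.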

[28] = system: normal NK cells expanded with K562-aAPC; assay: drug sensitivity score (DSS) (DSS units); higher = more sensitive; extreme values may be limits of the assay; details: 72 h; IL-2 2.5 ng/mL
Protocol: as §1

CN[C@@H](C)C(=O)N[C@H]1CN(C(=O)CC(C)C)CC[C@H]2CC[C@@H](C(=O)NC(c3ccccc3)c3ccccc3)N2C1=O [AT-406] (max concentration tested 10000 nM)
Details | drug sensitivity score
[1] | 4.65
[2] | 7.33
[3] | 5.48
[4] | 2.57
[5] | 6.28
[6] | 3.99
[7] | 5.12
[8] | 7.24
[9] | 0.19
[10] | 4.83
[11] | 3.66
[12] | 0
[13] | 8.94
[28] | 5.72

percent inhibition of viability [%]
Details | 1 nM | 10 nM | 100 nM | 1000 nM | 10000 nM
[14] | -23.7 | -16.2 | 3.03 | 13.5 | 49.2
[15] | -7.15 | 1.28 | 15.2 | 27.8 | 74
[16] | -11.2 | -10.2 | 2.26 | 13 | 61.8
[17] | -6.88 | -6.17 | 4.87 | 17.4 | 12.2
[18] | -16.6 | -8.69 | 4.59 | 20.9 | 64.6
[19] | 2.76 | 0.59 | 0.42 | 22.9 | 30.9
[20] | 0.46 | -9.34 | -3.88 | 10.2 | 62.7
[21] | -17.3 | -12.3 | 13.9 | 28.4 | 73.2
[22] | -9.2 | -11.9 | -1.09 | 4.11 | 11.8
[23] | -6.8 | 8.09 | 10.6 | 21.5 | 39.4
[24] | 0.43 | -2.82 | -3.18 | 14.6 | 35.9
[25] | -5.59 | -11.9 | -8.91 | -3.43 | 6.14
[26] | -3.13 | -12.2 | -7.84 | 25.9 | 91.8
[27] | -3.38 | -2.67 | 4.16 | 25.7 | 52.9

CC[C@H](CC#N)OC(=O)N[C@@H](C)c1cccc(NC(=O)Nc2ccc(-c3cnco3)c(OC)c2)c1 [AVN944] (max concentration tested 10000 nM)
Details | drug sensitivity score
[1] | 21.5
[2] | 2.1
[3] | 1.47
[4] | 13.5
[5] | 0.8
[6] | 19.2
[7] | 23.1
[8] | 4.7
[9] | 24.3
[10] | 22.3
[11] | 18.9
[12] | 22.9
[13] | 23.1
[28] | 9.68

percent inhibition of viability [%]
Details | 1 nM | 10 nM | 100 nM | 1000 nM | 10000 nM
[14] | -6.77 | -7.92 | 21.9 | 101 | 94.4
[15] | -6.01 | -11.6 | 1.98 | 6.68 | 27.3
[16] | -8.77 | -6.21 | 4.2 | 12.5 | 18.4
[17] | -3.38 | 0.07 | -49.7 | 74.7 | 93.8
[18] | -12.8 | -4.58 | 1.01 | 5.56 | 16.6
[19] | -10.6 | -12.7 | 32.8 | 81.2 | 72.3
[20] | 3.06 | 5.82 | 42.7 | 101 | 97.7
[21] | -10.3 | -2.43 | 27.4 | 7.53 | 62.7
[22] | 6.47 | 13.1 | 56.5 | 91 | 96.5
[23] | 1.82 | -0.51 | 46.2 | 89.3 | 94.2
[24] | 1.64 | 0.89 | 25.8 | 83.2 | 83.1
[25] | 1.24 | -1.29 | 45.5 | 94.6 | 94
[26] | -0.31 | 1.95 | 46.9 | 96.4 | 96.2
[27] | -4.47 | -3.33 | 15.6 | 41.6 | 39.1

CC(C)Oc1cc(Nc2nc(N[C@@H](C)c3ccc(F)cn3)ncc2Cl)n[nH]1 [AZ-23] (max concentration tested 1000 nM)
Details | drug sensitivity score
[1] | 0
[2] | 0
[3] | 0
[4] | 0
[5] | 7.86
[6] | 4.11
[7] | 2.21
[8] | 0
[9] | 3.55
[10] | 0.51
[11] | 0.01
[12] | 0.85
[13] | 0.25
[28] | 2.75

percent inhibition of viability [%]
Details | 0.1 nM | 1 nM | 10 nM | 100 nM | 1000 nM
[14] | -8.37 | -0.57 | 6.98 | -18.1 | -10.1
[15] | -2.92 | -1.19 | -3.79 | -5.46 | 7.88
[16] | -9.03 | -10.1 | -13.7 | 0.83 | 6.87
[17] | 1.36 | 2.7 | 8 | 5.82 | 6.35
[18] | -2.37 | -3.09 | -7.97 | 98.9 | 20
[19] | -5.13 | -8.13 | 11.5 | 13 | 49.2
[20] | 0.26 | -1.15 | 7.26 | 4.08 | 33.3
[21] | -13.2 | -3.44 | -0.59 | -21.9 | -26.6
[22] | -7.56 | 5.32 | 3.77 | 17.8 | 36.8
[23] | -2.19 | -3.08 | 4.42 | 0.42 | 18.3
[24] | -1.34 | 0.79 | 6.32 | -2.16 | 11.8
[25] | -4.76 | 0.81 | 3.08 | 0.21 | 23.1
[26] | -3.32 | 3.62 | 8.53 | 3.55 | 16.2
[27] | 2.78 | -2.04 | 0.04 | 9.24 | 31.4
